In experiment [1] the target is T1, McyI (Anabaena sp. 90, UniProt Q7WRR2). As to the kind of experiment: reductase assay, absorbance at […] nm. It counts as biochemical. The conditions noted are these: 1 mM OAA, 0.2 mM NADPH, 1.6 μM enzyme.
Experiment [2] deals with T1, McyI. As to the kind of experiment: isothermal titration calorimetry. The experiment is classed as binding.

T1 sequence (Q7WRR2 1-337 limits assumed): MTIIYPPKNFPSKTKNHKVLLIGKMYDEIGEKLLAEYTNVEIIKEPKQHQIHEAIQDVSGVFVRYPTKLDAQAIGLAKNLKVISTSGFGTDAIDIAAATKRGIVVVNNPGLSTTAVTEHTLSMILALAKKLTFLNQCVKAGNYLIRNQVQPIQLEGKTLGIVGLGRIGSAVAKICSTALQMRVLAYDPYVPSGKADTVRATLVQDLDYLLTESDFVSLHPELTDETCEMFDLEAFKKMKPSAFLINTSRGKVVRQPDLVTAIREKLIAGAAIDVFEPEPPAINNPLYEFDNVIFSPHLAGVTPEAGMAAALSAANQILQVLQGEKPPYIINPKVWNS

Take `O=C(O)CC(=O)C(=O)O` [OAA]: at McyI [1], the “reductase assay, absorbance at 340 nm” value was “The enzyme, OAA, and the nicotinamide cofactor”.
Regarding `NC(=O)C1=CN([C@@H]2O[C@H](COP(=O)(O)OP(=O)(O)OC[C@H]3O[C@@H](n4cnc5c(N)ncnc54)[C@H](OP(=O)(O)O)[C@@H]3O)[C@@H](O)[C@H]2O)C=CC1` [NADPH], on McyI [2], binding was put at a Kd of 16 µM.

(Values after publication PMC11977255 (Communications Biology, 2025).)
